Experimental data: US20200055848A1, “FURANONE DERIVATES AND METHODS OF USE THEREOF” (CARNA BIOSCIENCES, INC., priority 2016, published 2020)
Read-outs that look alike come from different tables or passages of the source.

Columns and labels:
[1] = test system: phosphorylation of MCM2 in Colo-205 cells; experiment: Recovery of MCM2 phosphorylation after inhibitor washout; assay type: cell-based, human; details: Colo-205 cells treated 48 hours, then compound-free media
Description: Colo-205 cells were treated with or without compounds for 48 h. After inhibitor washout with compound-free media, the cells were lysed at the indicated time and subjected to western blot analysis.
Next, we investigated the recovery of substrate phosphorylation in cells after inhibitor washout to see whether the slow-off rate of inhibitor affects the recovery of phosphorylation. Colo-205 cells were treated for 48 hours with 13, and then, the inhibitor was washed out with compound-free media. The cells were lysed at the indicated time, and the phosphorylation status of MCM2 was analyzed by western blotting.

GSK3β = GSK3β (Homo sapiens, UniProt P49841); experiment: Kinase selectivity IC50, GSK3β; assay type: biochemical
Description: (§1) To investigate the representative kinase selectivity of these compounds at physiological ATP levels, compound 13 was screened over a panel of 121 kinases in the presence of 1 mM ATP with preincubation method. […] IC50 values of hit kinases were determined to confirm the selectivity of compound 13.

[2] = target: T1, human Cdc7/human ASK complex protein (Homo sapiens, UniProt O00311); experiment: Cdc7/ASK enzymatic assay; assay type: biochemical
T1 construct: purchased Carna Biosciences, Inc
Description: Measurement of Cdc7 kinase activity was carried out using MSA assay kit (QuickScout™ Screening Assist Kit, Carna Biosciences, Inc.). Assay buffer (20 mM HEPES, 0.01% Triton X-100™, 2 mM dithiothreitol, pH 7.5) was used to prepare a substrate mixture solution comprising 4 μM of kinase-reaction substrate (FITC-labeled MCM2 peptide), 40 mM MgCl2, and 4 times concentrations of final targeted ATP (5, 100, and 1,000 μM). The enzyme supplied in the kit (human Cdc7/human ASK complex protein) was diluted into the assay buffer to prepare a 7 nM solution (enzyme solution). The compound stock solution was prepared by diluting a 10 mM DMSO solution into the assay buffer (final 4% DMSO). The kinase reaction was performed by mixing of 5 μL of the compound solution, 5 μL of the substrate mixture solution, and 10 μL of the enzyme solution in a 384-well plate. For the pre-incubation assay, the compound solution and the enzyme solution were pre-mixed and incubated at ambient temperature for 30 min before adding into the substrate mixture solution to start enzymatic reaction. After the reaction at 25° C. for 5 hours, 60 μL of the termination buffer (supplied in the kit) was added to stop the reaction. The phosphorylation of substrate was measured using a LabChip EZ Reader II system (Caliper Life Sciences). The percent inhibition (%) by a tested compound was calculated according to the following formula:
Percent inhibition (%)=(1−(C−A)/(B−A))×100
A represents P/(P+S) for a blank well, B represents P/(P+S) for a solvent well, and C represents P/(P+S) for a compound-added well. S: the peak heights of the separated substrate, P: phosphorylated substrate.
The IC50 value of tested compound was calculated by regression analysis of the percent inhibition values versus the (logarithmic) concentration of the tested compound.

Erk2 = Erk2 (Homo sapiens, UniProt P28482); experiment: Kinase selectivity IC50, Erk2; assay type: biochemical
Description: as §1

Erk1 = Erk1 (Homo sapiens, UniProt P27361); experiment: Kinase selectivity IC50, Erk1; assay type: biochemical
Description: as §1

[3] = test system: phosphorylation at Ser53 of MCM2; experiment: Western blotting of MCM2 phosphorylation in Colo-205 cells; assay type: cell-based, human; details: 48 h, even at 0.1 μM
Description: (§2) FIGS. 3A and 3B illustrate the effects of Cdc7 inhibition by compound 13 in Colo-205 cells. a) Western blot analysis of extracts prepared from Colo-205 cells at 48 h after treatment with DMSO control (0 μM) or compound 13 at indicated concentrations. b) […] analysis of Colo-205 cells treated for 48 h with DMSO control (0 μM) and the indicated concentration of compound 13. DNA content was measured by FACS after propidium iodide staining.
(§3) Human colon adenocarcinoma cell line Colo-205 was obtained from American Type Culture Collection (ATCC, Manassas Va.). Cells were grown in RPMI1640 supplemented with 10% FBS and 1% penicillin/streptomycin at 37° C., 5% CO2 and 95% humidity. Antibodies against Phospho-Histone H2A.X (Ser139) (no. 2577), Cleaved PARP (Asp214) (no. 9541) and MCM2 (no. 3619) were obtained from Cell signaling Technology. […]
(§4) Cells were seeded in T75 flasks (cell density, 2.25×10^6 cells/13.5 mL) and then incubated at 37° C. overnight. […] After washing with cold D-PBS, cells were scraped and lysed using a lysis buffer [RIPA Buffer (×1) containing 1% Phosphatase inhibitor Cocktail 3, 1% Phosphatase inhibitor Cocktail, and 1 mM phenylmethylsulfonyl fluoride], and the obtained samples were analyzed by western blotting. […] Each band was detected by chemiluminescence using a CCD camera (ImageQuant LAS 500, GE healthcare Ltd.).

cleaved PARP = experiment: Western blotting of cleaved PARP in Colo-205 cells; assay type: cell-based, human; details: 48 h
Description: as §2, §3, §4

Colo-205 cells [4] = experiment: Anti-proliferation activity in Colo-205 cells; assay type: cell-based; details: Homo sapiens, read-out: reduction of cell proliferation IC50
Colo-205 cells [5] = experiment: Cell cycle analysis (flow cytometry); assay type: cell-based, human; details: 48 hours, 0.33 and 1 μM
Description: as §2
Colo-205 cells (5×10^5) were seeded in six-well plates and treated with different concentrations of a test compound. After 48 h, the cells were harvested and suspended in 0.5 mL of D-PBS. The cells were then fixed by adding 1 mL of ice-cold ethanol, and the samples were kept at −30° C. The cells were resuspended in 200 μL PI solution (20 μg/mL propydium iodide and 100 μg/mL RNaseA of D-PBS), and incubated in the dark for 1 h at room temperature. Cell cycle analyses were performed using FACS Calibur flow cytometer (BD Biosciences).

CLK1 = CLK1 (Homo sapiens, UniProt P49759); experiment: Kinase selectivity IC50, CLK1; assay type: biochemical
Description: as §1

DYRK1B = DYRK1B (Homo sapiens, UniProt Q9Y463); experiment: Kinase selectivity IC50, DYRK1B; assay type: biochemical
Description: as §1

[6] = 1 mM ATP with preincubation, mean of duplicated assays

IC50 (GSK3β; [6]): 51 nM
Fold selectivity, GSK3β (GSK3β; IC50 versus Cdc7): 85 fold
IC50 ([2]; 5 μM ATP, mean of duplicated assays, read-out: Cdc7 IC50): 2.4 nM
Fold selectivity, Cdc7 ([2]; IC50 for each kinase versus Cdc7): 1.0 fold
IC50 ([2]; in the presence of 1 mM ATP, without pre-incubation, read-out: Cdc7 IC50): 191 nM
IC50 ([2]; kinase selectivity table, 1 mM ATP with preincubation, mean of duplicated assays, read-out: IC50 (nM), Cdc7): 0.6 nM
IC50 (Erk2; [6]): 61 nM
Fold selectivity, Erk2 (Erk2; IC50 versus Cdc7): 102 fold
IC50 (Erk1; [6]): 278 nM
Fold selectivity, Erk1 (Erk1; IC50 versus Cdc7): 463 fold
IC50 (Colo-205 cells [4]): 170 nM
IC50 (CLK1; [6]): 5 nM
Fold selectivity, CLK1 (CLK1; IC50 versus Cdc7): 8.3 fold
IC50 (DYRK1B; [6]): 53 nM
Fold selectivity, DYRK1B (DYRK1B; IC50 versus Cdc7): 88 fold
Compound: CCOC(=O)C1=C(Nc2ccccc2Cl)OC(=Cc2c[nH]c3ncccc23)C1=O [Compound 13, Ethyl 5-((1H-pyrrolo[2,3-b]pyridin-3-yl)methylene)-2-((2-chlorophenyl)amino)-4-oxo-4,5-dihydrofuran-3-carboxylate]
phosphorylation of MCM2 after inhibitor washout [1]: inhibited even 24 hours after washout
pre-incubation effect on Cdc7 inhibition ([2]; 30 min pre-incubation with Cdc7, various ATP concentrations up to 1 mM): inhibitory potencies were sustained even in the presence of 1 mM ATP
ATP competition assay: effect of ATP concentration on inhibitory potency ([2]; various ATP concentrations, without pre-incubation): ATP-dependent proportional decreases in inhibitory potencies
inhibition of phosphorylation at Ser53 of MCM2 [3]: potently inhibited
cleaved PARP (apoptosis marker) (cleaved PARP): Dose-dependent increases
G1 phase peak (Colo-205 cells [5]): Marked decreases
sub-G1 population (Colo-205 cells [5]): significant increase
